According to patent US8399452B2, “Dibenzo[b,f][1,4]oxazepin-11-yl-N-hydroxybenzamides as HDAC inhibitors” (Methylgene Inc., priority 2006, dated 2013):

biological target: histone deacetylase (HDAC Enzyme); test: Inhibition of Histone Deacetylase Enzymatic Activity (Boc-Lys(Ac)-AMC, Fluor-de-Lys developer); format: biochemical; conditions: Table 9; read-out: HDAC Inhibition (IC50 μM) HDAC Enzyme
Description: The following protocol is used to assay the compounds of the invention.
The mixture is pre-incubated for 5 minutes at room temperature. The reaction is started by bringing the temperature to 37° C. and adding 16 μl substrate. Total reaction volume is 50 μl.
In the Tables 8, 9 and 10, A≦[…]<B≦0.1 μM; 0.1 μM<C≦1 μM; and 1 μM<D≦10 μM.

| Compound | IC50 [µM] |
| --- | --- |
| O=C(NO)c1cnc(N2C[C@@H]3C[C@H]2CN3c2cccc(F)c2)nc1 [2-((1S,4S)-5-(3-fluorophenyl)-2,5-diazabicyclo[2.2.1]heptan-2-yl)-N-hydroxypyrimidine-5-carboxamide] | < 0.05 |
| O=C(NO)c1cnc(N2C[C@@H]3C[C@H]2CN3C(=O)OC2CCCC2)nc1 [(1S,4S)-cyclopentyl 5-(5-(hydroxycarbamoyl)pyrimidin-2-yl)-2,5-diazabicyclo[2.2.1]heptane-2-carboxylate] | < 0.05 |
| COc1cccc(N2CC3CC2CN3c2ccc(C(=O)NO)cc2)c1 (stereo not shown) [N-hydroxy-4-(5-(3-methoxyphenyl)-2,5-diazabicyclo[2.2.1]heptan-2-yl)benzamide] | 0.1 to 1 |
| O=C(NO)c1ccc(N2C[C@@H]3C[C@H]2CN3c2cccc(C(F)(F)F)c2)nn1 [N-hydroxy-6-((1S,4S)-5-(3-(trifluoromethyl)phenyl)-2,5-diazabicyclo[2.2.1]heptan-2-yl)pyridazine-3-carboxamide] | 0.1 to 1 |
| O=C(NO)c1cnc(N2C[C@@H]3C[C@H]2CN3c2cccc(C(F)(F)F)c2)nc1 [N-hydroxy-2-((1S,4S)-5-(3-(trifluoromethyl)phenyl)-2,5-diazabicyclo[2.2.1]heptan-2-yl)pyrimidine-5-carboxamide] | < 0.05 |
| O=C(NO)c1cnc(N2C[C@@H]3C[C@H]2CN3c2ccc3c(c2)OCO3)nc1 [2-((1S,4S)-5-(benzo[d][1,3]dioxol-5-yl)-2,5-diazabicyclo[2.2.1]heptan-2-yl)-N-hydroxypyrimidine-5-carboxamide] | < 0.05 |
| O=C(NO)c1cnc(N2C[C@@H]3C[C@H]2CN3c2nccc(C(F)(F)F)n2)nc1 [N-hydroxy-2-((1S,4S)-5-(4-(trifluoromethyl)pyrimidin-2-yl)-2,5-diazabicyclo[2.2.1]heptan-2-yl)pyrimidine-5-carboxamide] | < 0.05 |
| O=C(NO)c1cnc(N2C[C@@H]3C[C@H]2CN3c2ccc3nonc3c2)nc1 [2-((1S,4S)-5-(benzo[c][1,2,5]oxadiazol-5-yl)-2,5-diazabicyclo[2.2.1]heptan-2-yl)-N-hydroxypyrimidine-5-carboxamide] | < 0.05 |
| O=C(NO)c1cnc(N2C[C@@H]3C[C@H]2CN3c2ccc(C(F)(F)F)cc2)nc1 [N-hydroxy-2-((1S,4S)-5-(4-(trifluoromethyl)phenyl)-2,5-diazabicyclo[2.2.1]heptan-2-yl)pyrimidine-5-carboxamide] | < 0.05 |
| O=C(NO)c1cnc(N2C[C@@H]3C[C@H]2CN3c2cc(C(F)(F)F)cc(C(F)(F)F)c2)nc1 [2-((1S,4S)-5-(3,5-bis(trifluoromethyl)phenyl)-2,5-diazabicyclo[2.2.1]heptan-2-yl)-N-hydroxypyrimidine-5-carboxamide] | < 0.05 |
| O=C(NO)c1cnc(N2C[C@@H]3C[C@H]2CN3c2cccc3nonc23)nc1 [2-((1S,4S)-5-(benzo[c][1,2,5]oxadiazol-4-yl)-2,5-diazabicyclo[2.2.1]heptan-2-yl)-N-hydroxypyrimidine-5-carboxamide] | < 0.05 |
| O=C(NO)c1cnc(N2C[C@H]3C[C@@H]2CN3c2cc(C(F)(F)F)ccn2)nc1 [N-hydroxy-2-((1R,4R)-5-(4-(trifluoromethyl)pyridin-2-yl)-2,5-diazabicyclo[2.2.1]heptan-2-yl)pyrimidine-5-carboxamide] | < 0.05 |

same assay, conditions: Table 10; read-out: HDAC Inhibition (IC50 μM) HDAC Enzyme

| Compound | IC50 [µM] |
| --- | --- |
| CN1C(=O)CN=C(c2ccc(C(=O)NO)cc2)c2ccccc21 [(Z)-N-hydroxy-4-(1-methyl-2-oxo-2,3-dihydro-1H-benzo[e][1,4]diazepin-5-yl)benzamide] | 0.1 to 1 |
| O=C(NO)c1cnc(N2C[C@H]3C[C@@]3(c3cccc(C(F)(F)F)c3)C2)nc1 | 0.1 to 1 |
| O=C(NO)c1cnc(N2C[C@H]3C[C@@]3(c3ccccc3)C2)nc1 [N-hydroxy-2-((1R,5S)-1-phenyl-3-azabicyclo[3.1.0]hexan-3-yl)pyrimidine-5-carboxamide] | 0.1 to 1 |
| O=C(Cc1ccc(CN2c3ccccc3C=Cc3ccccc32)cc1)NO [(Z)-2-(4-((5H-dibenzo[b,f]azepin-5-yl)methyl)phenyl)-N-hydroxyacetamide] | 0.1 to 1 |
| O=C(NO)c1cnc(N2CCN(C3c4ccccc4CCc4ccccc43)CC2)nc1 | 0.1 to 1 |
| O=C(/C=C/c1ccc(CN2C(=O)c3ccccc3Oc3ccccc32)cc1)NO | < 0.05 |
| CN1C(=O)CN=C(c2ccccc2)c2ccc(/C=C/C(=O)NO)cc21 [(E)-N-hydroxy-3-((Z)-1-methyl-2-oxo-5-phenyl-2,3-dihydro-1H-benzo[e][1,4]diazepin-8-yl)acrylamide] | 0.1 to 1 |
| O=C(NO)c1ccc(CN(c2ccccc2)c2ccccc2)cc1 [4-((diphenylamino)methyl)-N-hydroxybenzamide] | 0.1 to 1 |
| O=C(NO)c1cccc(CNC2c3ccccc3CCc3ccccc32)c1 | 0.1 to 1 |
| O=C(NO)c1cnc(NCC2c3ccccc3CCc3ccccc32)nc1 | < 0.05 |
| O=C(CCCCCCON=C1c2ccccc2CCc2ccccc21)NO | 0.1 to 1 |
| O=C(NO)c1cccc(COC2c3ccccc3CCc3ccccc32)c1 | 0.1 to 1 |
| O=C(C=C1c2ccccc2C=Cc2ccccc21)NO | 0.1 to 1 |
| O=C(CCCN1C(=O)c2cccnc2N(C2CC2)c2ccccc21)NO [4-(11-cyclopropyl-5-oxo-5H-benzo[b]pyrido[2,3-e][1,4]diazepin-6(11H)-yl)-N-hydroxybutanamide] | 1 to 10 |

same assay, conditions: read-out: HDAC Inhibtion (IC50 μM) HDAC Enzyme

| Compound | IC50 [µM] |
| --- | --- |
| O=C(NO)c1ccc(C2=Nc3ccccc3Oc3ccccc32)cc1F [(Z)-4-(dibenzo[b,f][1,4]oxazepin-11-yl)-2-fluoro-N-hydroxybenzamide] | 0.1 to 1 |
| COc1cccc2c1Oc1ccc(C(F)(F)F)cc1N=C2c1ccc(C(=O)NO)cc1 [(Z)-N-hydroxy-4-(4-methoxy-8-(trifluoromethyl)dibenzo[b,f][1,4]oxazepin-11-yl)benzamide] | 0.1 to 1 |
| CC(C)N1c2ccccc2N=C(c2ccc(C(=O)NO)cc2)c2ccccc21 [(Z)-N-hydroxy-4-(5-isopropyl-5H-dibenzo[b,e][1,4]diazepin-11-yl)benzamide] | < 0.05 |
| Cc1ccc2c(c1)N=C(c1ccc(C(=O)NO)cc1)c1ccccc1O2 [(Z)-N-hydroxy-4-(8-methyldibenzo[b,f][1,4]oxazepin-11-yl)benzamide] | 0.05 to 0.1 |
| COc1cccc2c1Oc1ccccc1N=C2c1ccc(C(=O)NO)cc1 [(Z)-N-hydroxy-4-(4-methoxydibenzo[b,f][1,4]oxazepin-11-yl)benzamide] | 0.05 to 0.1 |
| CN1c2ccccc2Oc2ccccc2C1c1ccc(C(=O)NO)cc1 (stereo not shown) [N-hydroxy-4-(10-methyl-10,11-dihydrodibenzo[b,f][1,4]oxazepin-11-yl)benzamide] | 0.1 to 1 |
| O=C(NO)c1ccc(C2=Nc3ccccc3Oc3ccccc32)s1 [(E)-5-(dibenzo[b,f][1,4]oxazepin-11-yl)-N-hydroxythiophene-2-carboxamide] | < 0.05 |
| O=C(NO)c1ccc(C2=Nc3ccccc3Oc3ccc(Cl)cc32)cc1 [(Z)-4-(2-chlorodibenzo[b,f][1,4]oxazepin-11-yl)-N-hydroxybenzamide] | < 0.05 |
| O=C(NO)c1ccc(C2=Nc3ccccc3Oc3ccccc32)nc1 [(E)-6-(dibenzo[b,f][1,4]oxazepin-11-yl)-N-hydroxynicotinamide] | 0.1 to 1 |
| O=C(NO)c1ccc(C2=Nc3ccc(Cl)cc3Oc3ccccc32)cc1 [(Z)-4-(7-chlorodibenzo[b,f][1,4]oxazepin-11-yl)-N-hydroxybenzamide] | 0.1 to 1 |
| N#Cc1ccc2c(c1)N=C(c1ccc(C(=O)NO)cc1)c1ccccc1O2 [(Z)-4-(8-cyanodibenzo[b,f][1,4]oxazepin-11-yl)-N-hydroxybenzamide] | 0.05 to 0.1 |
